The source of these data is patent US6362207B1, “Methods of treating viral infections with benzimidazoles” (priority 1995, dated 2002).

Molecules are shown by their SMILES.

The subject of one assay is MV522. Briefly: Lung cancer model MV522 after Taxol, tumor weight. It counts as in vivo, mice. The method, then: The dose response effect of carbendazim in mice infected with various cancer types was studied in standard screening tests.
The results of these studies conducted to study the dosage response of carbendazim on various cancer types are summarized below. […] Efficacy of carbendazim has been shown in the following cancers:
At doses of 2000, 3000, 4000 and 5000 (mg/kg given twice weekly, p.o.) tumor growth was suppressed in a dose response and the tumor was shrunk in the 5000 mg/kg group. Day 1 is the start of the treatment with carbendazim.

Assay [1] has as its system B16 murine melanoma cell line. Briefly: Apoptosis study (TdT assay) and cell growth. It counts as cell-based. On the procedure: Summary of test results: The extent of apoptosis is measured in human tumor cell lines after treatment for 1, 2, 3 and 4 days with carbendazim. At each of these time points, the cells are harvested and assayed using the terminal deoxynucleotidyl transferase (TdT) assays. Both microscopy and flow cytometry were used for the TdT assay.
In MCF7, HT29, B16 and SK-MES cell lines, there was a concentration dependent effect on cell growth. […] After completion of the studies on the MCF7 and HT29 cell lines, it was evident that the 0.1 μg/ml concentration had little effect on either apoptosis or cell growth. Therefore subsequent assays were with 5 μg/ml instead of 0.1 μg/ml.
The concentration effects at days 1-4 were much more evident after normalization of the apoptosis for the growth rates.

A further assay concerns A549 lung tumor cells. Description: MTT cell viability test, lung tumor cells. Format: cell-based, human. The settings on record: MTT, 5 day incubation.
The test system of a further assay is colon. Briefly: Tumor growth reduction in mice models (Tables 5 and 6), colon. It counts as in vivo. To be noted: HT29-colon, 2500 mg/kg.
In the next assay the test system is HIV. Description: microbe, parasite or virus in culture. It counts as cell-based.

Broadly, the inhibition is the share of the control response that was lost under treatment. Regarding `COC(=O)Nc1nc2ccccc2[nH]1` [carbendazim, 2-methoxycarbonylamino-benzimidazole], the tumor weight in the assay on MV522 (2000 mg/kg twice weekly p.o., c1-c3 = day 59, 63, 66, 2000 mg/kg, day 59) worked out at 214.9 mg; in the assay on MV522 (2000 mg/kg twice weekly p.o., c1-c3 = day 59, 63, 66, 2000 mg/kg, day 63) it was 193.7 mg; in the assay on MV522 (2000 mg/kg twice weekly p.o., c1-c3 = day 59, 63, 66, 2000 mg/kg, day 66), 188.9 mg; in the assay with MV522 (3000 mg/kg twice weekly p.o., c1-c3 = day 59, 63, 66, 3000 mg/kg, day 59), 75.4 mg; in the assay on MV522 (3000 mg/kg twice weekly p.o., c1-c3 = day 59, 63, 66, 3000 mg/kg, day 63), 77 mg; with MV522 (3000 mg/kg twice weekly p.o., c1-c3 = day 59, 63, 66, 3000 mg/kg, day 66) it was 94.5 mg. Besides, the growth rates result in assay [1] (all concentrations) is “affected the growth rates”. Further, the apoptosis entry in assay [1] (days 14 by TdT microscopy and days 2-4 by flow cytometry) was “Some concentration dependent effects”. Further, the “EC-50 Result” value with A549 lung tumor cells (A549, first column) is reported as 0.856 ppm; with A549 lung tumor cells (A549, second column) it was 0.836 ppm. Moreover, the “Tumor Growth Decrease (%)” value with colon came out at 54%. For the same compound, the “therapeutic index (TI), ratio of toxic dose to efficacious dose” value in the assay on HIV is on record as 1.8. The inhibition at 4 µg/mL in the assay with HIV (Human immunodeficiency virus 1, read-out: inhibition of viral replication) amounted to 100%.
